{"source": "BindingDB's records for doi:10.1016/s0960-894x(98)00318-7", "about": "(National Taiwan University, 1999)", "test": "Binding affinity against Opioid receptor delta 1 was determined in brain membrane preparations from male Hartley guinea-pigs", "data": [{"compound": "CCC1Oc2c(O)cccc2C12CCN(C)CC2", "note": "(stereo not drawn) [2-ethyl-1'-methylspiro[2,3-dihydrobenzo[b]furan-3,4'-(hexahydropyridine)]-7-ol]", "values": [{"measurement": "Ki", "result": 853, "unit": "nM"}]}, {"compound": "CN1CCC2(CC1)COc1c(O)cccc12", "note": "[1'-methylspiro[2,3-dihydrobenzo[b]furan-3,4'-(hexahydropyridine)]-7-ol]", "values": [{"measurement": "Ki", "result": "> 100000", "unit": "nM"}]}, {"compound": "CC1Oc2c(O)cccc2C12CCN(C)CC2", "note": "(stereo not drawn) [1',2-dimethylspiro[2,3-dihydrobenzo[b]furan-3,4'-(hexahydropyridine)]-7-ol]", "values": [{"measurement": "Ki", "result": 2410, "unit": "nM"}]}]}
